Data: US10428044B2, “3-amino-1,5,6,7-tetrahydro-4H-indol-4-ones” (Bayer Pharma Aktiengesellschaft, priority 2014, dated 2019)

Biological target: (recombinant) catalytic domain of human Bub1 (amino acids 704-1085) (Homo sapiens (Human), UniProt O43683)
Assay: Bub1 kinase assay (TR-FRET)
Assay type: biochemical
Details: ATP 10 μM final, peptide substrate 1 μM final, 60 min at 22° C., read-out: Biological Assay: Bub1 kinase assay median IC50
Method: Examples were tested in selected biological assays one or more times. When tested more than once, data are reported as either average values or as median values, wherein • the average value, also referred to as the arithmetic mean value, represents the sum of the values obtained divided by the number of times tested, and • the median value represents the middle number of the group of values when ranked in ascending or descending order. If the number of values in the data set is odd, the median is the middle value. If the number of values in the data set is even, the median is the arithmetic mean of the two middle values.
To this end, 100-fold concentrated compound solutions (in DMSO) were previously prepared by serial dilution (1:3.4) of 2 mM stocks in a clear low volume 384-well source microtiter plate (Greiner Bio-One, Frickenhausen, Germany), from which 50 nl of compounds were transferred into a black low volume test microtiter plate from the same supplier. […] The resulting mixture (5 μL final volume) was incubated at 22° C. during 60 min., and the reaction was stopped by the addition of 5 μL of an aqueous EDTA-solution (50 mM EDTA, in 100 mM HEPES pH 7.5 and 0.2% (w/v) bovine serum albumin) which also contained the TR-FRET detection reagents (0.2 μM streptavidin-XL665 [Cisbio Bioassays, Codolet, France] and 1 nM anti-phosho-Serine antibody [Merck Millipore, cat. #35-002] and 0.4 nM LANCE EU-W1024 labeled anti-mouse IgG antibody [Perkin-Elmer, product no. AD0077, alternatively a Terbium-cryptate-labeled anti-mouse IgG antibody from Cisbio Bioassays can be used]). The stopped reaction mixture was further incubated 1 h at 22° C. in order to allow the formation of complexes between peptides and detection reagents. Subsequently, the amount of product was evaluated by measurement of the resonance energy transfer from the Eu-chelate-antibody complex recognizing the Phosphoserine residue to the streptavidin-XL665 bound to the biotin moiety of the peptide. […] The data were normalised using two sets of control wells for high- (=enzyme reaction without inhibitor=0%=Minimum inhibition) and low- (=all assay components without enzyme=100%=Maximum inhibition) Bub1 activity. IC50 values were calculated by fitting the normalized inhibition data to a 4-parameter logistic equation (Minimum, Maximum, IC50, Hill; Y=Max+(Min−Max)/(1+(X/IC50)Hill)).

(recombinant) catalytic domain of human Bub1 (amino acids 704-1085), sequence (O43683 704-1085): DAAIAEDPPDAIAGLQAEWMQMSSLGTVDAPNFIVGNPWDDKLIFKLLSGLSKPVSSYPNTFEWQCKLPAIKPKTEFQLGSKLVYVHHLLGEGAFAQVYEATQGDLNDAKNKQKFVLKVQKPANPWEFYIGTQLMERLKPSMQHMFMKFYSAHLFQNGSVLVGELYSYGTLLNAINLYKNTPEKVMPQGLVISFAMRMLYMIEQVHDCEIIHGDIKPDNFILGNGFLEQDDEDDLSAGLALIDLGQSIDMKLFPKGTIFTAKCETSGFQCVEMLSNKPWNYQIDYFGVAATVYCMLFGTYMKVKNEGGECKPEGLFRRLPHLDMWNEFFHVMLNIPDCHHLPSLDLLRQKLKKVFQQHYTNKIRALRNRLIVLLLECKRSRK

Row | IC50 | Structure (SMILES)
1 | 0.0924 µM | Nc1cc(-c2[nH]c3c(c2Nc2cccc(F)c2)C(=O)CCC3)ccn1 [Example 138, 2-(2-aminopyridin-4-yl)-3-[(3-fluorophenyl)amino]-1,5,6,7-tetrahydro-4H-indol-4-one]
2 | 0.0154 µM | CC1(C)CC(=O)c2c([nH]c(-c3ccncc3)c2Nc2cccc(Br)c2)C1 [Example 12, 3-[(3-bromophenyl)amino]-6,6-dimethyl-2-(pyridin-4-yl)-1,5,6,7-tetrahydro-4H-indol-4-one]
3 | 0.283 µM | CC1(C)CC(=O)c2c([nH]c(-c3ccncc3)c2Nc2cccc(Cc3ccccc3)c2)C1 [Example 415, 3-[(3-benzylphenyl)amino]-6,6-dimethyl-2-(pyridin-4-yl)-1,5,6,7-tetrahydro-4H-indol-4-one]
4 | 0.00258 µM | CC1(C)CC(=O)c2c([nH]c(-c3ccncc3)c2Nc2ccccc2CO)C1 [Example 426, 3-{[2-(hydroxymethyl)phenyl]amino}-6,6-dimethyl-2-(pyridin-4-yl)-1,5,6,7-tetrahydro-4H-indol-4-one]
5 | 1.13 µM | CNc1cc(-c2[nH]c3c(c2Nc2ccccc2)C(=O)CCC3)ccn1 [Example 358, 2-[2-(methylamino)pyridin-4-yl]-3-(phenylamino)-1,5,6,7-tetrahydro-4H-indol-4-one]
6 | 0.0135 µM | O=C1CCCc2[nH]c(-c3ccnc(NC(=O)C4CC4)c3)c(Nc3ccccc3)c21 [Example 48, N-{4-[4-oxo-3-(phenylamino)-4,5,6,7-tetrahydro-1H-indol-2-yl]pyridin-2-yl}cyclopropanecarboxamide]
7 | 0.22 µM | NC(=O)CCn1c2c(c(Nc3ccccc3)c1-c1ccncc1)C(=O)CCC2 [Example 174, 3-[4-oxo-3-(phenylamino)-2-(pyridin-4-yl)-4,5,6,7-tetrahydro-1H-indol-1-yl]propanamide]
8 | 0.296 µM | Cc1ccc(Nc2c(-c3ccncc3)[nH]c3c2C(=O)CC(C)(C)C3)cc1Cl [Example 92, 3-[(3-chloro-4-methylphenyl)amino]-6,6-dimethyl-2-(pyridin-4-yl)-1,5,6,7-tetrahydro-4H-indol-4-one]
9 | 14.1 µM | CC1(C)CC(=O)c2c([nH]c(-c3ccncc3)c2Nc2ccnc3ccccc23)C1 [Example 75, 6,6-dimethyl-2-(pyridin-4-yl)-3-(quinolin-4-ylamino)-1,5,6,7-tetrahydro-4H-indol-4-one]
10 | 0.0103 µM | CC1(C)CC(=O)c2c([nH]c(-c3ccnc(NC(=O)c4ccc(F)c(F)c4)c3)c2Nc2ccccc2)C1 [Example 473, N-{4-[6,6-dimethyl-4-oxo-3-(phenylamino)-4,5,6,7-tetrahydro-1H-indol-2-yl]pyridin-2-yl}-3,4-difluorobenzamide]
11 | 0.0105 µM | O=C1CCCc2[nH]c(-c3ccnc(NC(=O)[C@H]4C[C@@H]4F)c3)c(Nc3ccccc3)c21 [Example 251, (R,S/S,R)-2-fluoro-N-{4-[4-oxo-3-(phenylamino)-4,5,6,7-tetrahydro-1H-indol-2-yl]pyridin-2-yl}cyclopropanecarboxamide]
12 | 0.217 µM | O=C1CCCc2c1c(Nc1ccccc1)c(-c1ccncc1)n2CCCO [Example 175, 1-(3-hydroxypropyl)-3-(phenylamino)-2-(pyridin-4-yl)-1,5,6,7-tetrahydro-4H-indol-4-one]
13 | 0.00797 µM | O=C1CCCc2[nH]c(-c3ccncc3)c(Nc3ccc(F)c(F)c3)c21 [Example 38, 3-[(3,4-difluorophenyl)amino]-2-(pyridin-4-yl)-1,5,6,7-tetrahydro-4H-indol-4-one]
14 | 0.0817 µM | CC1(C)CC(=O)c2c([nH]c(-c3ccncc3)c2Nc2ccc3[nH]ccc3c2)C1 [Example 70, 3-(1H-indol-5-ylamino)-6,6-dimethyl-2-(pyridin-4-yl)-1,5,6,7-tetrahydro-4H-indol-4-one]
15 | 0.0194 µM | O=C1CCCc2[nH]c(-c3ccnc(NC(=O)C4CCC4)c3)c(Nc3ccccc3)c21 [Example 229, N-{4-[4-oxo-3-(phenylamino)-4,5,6,7-tetrahydro-1H-indol-2-yl]pyridin-2-yl}cyclobutanecarboxamide]
16 | 0.0823 µM | O=C1CCCc2[nH]c(-c3ccnc(NC(=O)C4CC4)c3)c(Nc3ccc(F)c(F)c3)c21 [Example 316, N-(4-{3-[(3,4-difluorophenyl)amino]-4-oxo-4,5,6,7-tetrahydro-1H-indol-2-yl}pyridin-2-yl)cyclopropanecarboxamide]
17 | 3.12 µM | Cc1cc(-c2[nH]c3c(c2Nc2ccccc2)C(=O)CC(C)(C)C3)cc(C)n1 [Example 209, 2-(2,6-dimethylpyridin-4-yl)-6,6-dimethyl-3-(phenylamino)-1,5,6,7-tetrahydro-4H-indol-4-one]
18 | 6.74 µM | CC(=O)N(C)c1cc(-c2[nH]c3c(c2Nc2ccccc2)C(=O)CC(C)(C)C3)ccn1 [Example 240, N-{4-[6,6-dimethyl-4-oxo-3-(phenylamino)-4,5,6,7-tetrahydro-1H-indol-2-yl]pyridin-2-yl}-N-methylacetamide]
19 | 0.00569 µM | CC1(C)CC(=O)c2c([nH]c(-c3ccncc3F)c2Nc2ccccc2)C1 [Example 30, 2-(3-fluoropyridin-4-yl)-6,6-dimethyl-3-(phenylamino)-1,5,6,7-tetrahydro-4H-indol-4-one]
20 | 0.208 µM | CN(C)CC(=O)Nc1cc(-c2[nH]c3c(c2Nc2ccccc2)C(=O)CCC3)ccn1 [Example 307, N^2,N^2;-dimethyl-N-{4-[4-oxo-3-(phenylamino)-4,5,6,7-tetrahydro-1H-indol-2-yl]pyridin-2-yl}glycinamide]
21 | 0.689 µM | CC1(C)CC(=O)c2c([nH]c(-c3ccncc3)c2Nc2ccccc2Cc2ccccc2)C1 [Example 416, 3-[(2-benzylphenyl)amino]-6,6-dimethyl-2-(pyridin-4-yl)-1,5,6,7-tetrahydro-4H-indol-4-one]
22 | 0.00452 µM | Cn1cc(NC(=O)Nc2cc(-c3[nH]c4c(c3Nc3ccccc3)C(=O)CC(C)(C)C4)ccn2)cn1 [Example 391, 1-{4-[6,6-dimethyl-4-oxo-3-(phenylamino)-4,5,6,7-tetrahydro-1H-indol-2-yl]pyridin-2-yl}-3-(1-methyl-1H-pyrazol-4-yl)urea]
23 | 0.0099 µM | C=CCOCC(=O)Nc1cc(-c2[nH]c3c(c2Nc2ccccc2)C(=O)CCC3)ccn1 [Example 335, N-{4-[4-oxo-3-(phenylamino)-4,5,6,7-tetrahydro-1H-indol-2-yl]pyridin-2-yl}-2-(prop-2-en-1-yloxy)acetamide]
24 | 0.00345 µM | CC1(C)CC(=O)c2c([nH]c(-c3ccncc3)c2Nc2cccc(F)c2CO)C1 [Example 486, 3-{[3-fluoro-2-(hydroxymethyl)phenyl]amino}-6,6-dimethyl-2-(pyridin-4-yl)-1,5,6,7-tetrahydro-4H-indol-4-one]
25 | 0.622 µM | O=C1CCCc2[nH]c(-c3ccnc(NCC4CC4)c3)c(Nc3ccccc3)c21 [Example 368, 2-{2-[(cyclopropylmethyl)amino]pyridin-4-yl}-3-(phenylamino)-1,5,6,7-tetrahydro-4H-indol-4-one]
26 | 0.0126 µM | O=C(Nc1cc(-c2[nH]c3c(c2Nc2ccccc2)C(=O)CCC3)ccn1)c1cccnc1 [Example 279, N-{4-[4-oxo-3-(phenylamino)-4,5,6,7-tetrahydro-1H-indol-2-yl]pyridin-2-yl}pyridine-3-carboxamide]
27 | 0.0709 µM | CC1(C)CC(=O)c2c([nH]c(-c3ccncc3)c2Nc2ccccc2C(N)=O)C1 [Example 429, 2-{[6,6-dimethyl-4-oxo-2-(pyridin-4-yl)-4,5,6,7-tetrahydro-1H-indol-3-yl]amino}benzamide]
